# Tests used:
# [1] = system: rat caudal arterial smooth muscle (RTA); assay: Calyculin A-induced contraction of rat caudal arterial smooth muscle (RTA) strips
# Method: Tissue preparation and Force Measurement for RTA smooth muscle: Caudal arteries were removed from male Sprague-Dawley rats (300-350 g) that had been anesthetized and euthanized according to protocols approved by the University of Calgary Animal Care and Use Committee. The arteries were cleaned of excess adventitia, de-endothelialized and cut into helical strips (1.5 mm×6 mm). Muscle strips were mounted on a Grass isometric force transducer (FT03C), and force was recorded. Intact tissues were treated with calyculin A (CLa, […]). At selected sampling points, muscle strips were flash-frozen in 10% (w/v) TCA, 10 mM DTT in acetone followed by 3×10 s washes in 10 mM DTT in acetone. Tissues were then lyophilized overnight. Protein was extracted from each arterial strip by incubation (16 h, 5° C.) in 0.5 mL of SDS-PAGE sample buffer.
# In this case, calyculin A (CLa, 10^−7M)-induced contractions were used since inhibition of myosin phosphatase activity in RTA unmasks endogenous Ca^2+-independent LC20 kinase activities, including ZIPK. Experiments were performed with addition of inhibitors for ROK (HA-1152, 10^−6 M; GSK429286A, 10^−5M) in combination with HS-38. Combining ROK and ZIPK inhibitors had no effect on Ca^2+-sensitization (force generation or downstream ZIPK target phosphorylation).
# Data were collected for RTA smooth muscle contraction in the presence and absence of HS-38, including measurements of contractile force development, and the concentration dependency of these effects. […] The t1/2 max value is defined as the time required for contractile force to reach 50% of maximal tone.
# The latency period, i.e. the time from addition of calyculin A to the onset of contraction, and the half-time from the initiation of contraction to the plateau of the contractile response, were determined, in addition to the t1/2 values (the half-time from addition of calyculin A to the plateau of the contractile response) determined previously, in the absence and presence of HS-38. […] On the other hand, the steady-state level of force induced by calyculin A was unaffected by ZIPK inhibition. The results support the ability of HS38 to suppress the initiation and rate of contractile tone without altering the total force potential of the muscle.
# [2] = system: MYPT1 Thr696 phosphorylation; assay: Western blot of MYPT1 Thr696 phosphorylation in Ca2+-sensitized rabbit ileum; details: HS38 50 μM
# Method: To examine the effect of ZIPK inhibition on sensitized force, muscle strips were stimulated with an intermediate calcium concentration solution (pCa 6.5). Once force reached a plateau, strips were Ca^2+-sensitized by the addition of the agonist carbachol (5 μM). Up to 2 μM of GTP was added together with the sensitizing agonist to compensate for possible loss of GTP during permeabilization. At the plateau of Ca-sensitized force (5-10 min upon stimulation), the ZIPK inhibitor, HS38 (50 μM) or diluent (0.1% DMSO) was added and the force relaxation time course was recorded. Tissue samples were frozen 20 min after the addition of HS38 for biochemical assays of RLC20 and MYPT1 phosphorylation.
# MYPT1 and RLC20 phosphorylation: To examine the phosphorylation of MYPT1 and RLC20, rabbit ileum SM strips were treated as described above and previously reported. (Gong et al. (1995), J. Physiol.-London 486, 113-122; Kitazawa et al. (1989) J. Biol. Chem. 264, 5339-5342; Kobayashi et al. (1991) Am. J. Physiol. 260, C364-C370), Following the stimulation protocols, muscle strips were immediately frozen by immersion in −80° C. acetone with trichloroacetic acid (10% w/v) and stored at −80° C. […] Phosphorylation of MYPT1 Thr696 and of RLC20 was determined by SDS-PAGE and Western blotting. […]
# [3] = system: isolated PCA vessels (posterior cerebral artery of the rat); assay: Dilation of isolated PCA vessels previously constricted with 5HT
# Excerpt: FIG. 47 is a graph of HS-38 concentration versus percent dilation of isolated PCA vessels (posterior cerebral artery of the rat) previously constricted with 5HT.
# ZIPK expression differences within different vascular beds may provide distinct pharmacology.
# Src = Src (Homo sapiens, UniProt P12931); assay: 33P-ATP filter-binding kinase assay (kinome profile); format: biochemical; details: 10 μM HS38
# Src, sequence (P12931 whole entry): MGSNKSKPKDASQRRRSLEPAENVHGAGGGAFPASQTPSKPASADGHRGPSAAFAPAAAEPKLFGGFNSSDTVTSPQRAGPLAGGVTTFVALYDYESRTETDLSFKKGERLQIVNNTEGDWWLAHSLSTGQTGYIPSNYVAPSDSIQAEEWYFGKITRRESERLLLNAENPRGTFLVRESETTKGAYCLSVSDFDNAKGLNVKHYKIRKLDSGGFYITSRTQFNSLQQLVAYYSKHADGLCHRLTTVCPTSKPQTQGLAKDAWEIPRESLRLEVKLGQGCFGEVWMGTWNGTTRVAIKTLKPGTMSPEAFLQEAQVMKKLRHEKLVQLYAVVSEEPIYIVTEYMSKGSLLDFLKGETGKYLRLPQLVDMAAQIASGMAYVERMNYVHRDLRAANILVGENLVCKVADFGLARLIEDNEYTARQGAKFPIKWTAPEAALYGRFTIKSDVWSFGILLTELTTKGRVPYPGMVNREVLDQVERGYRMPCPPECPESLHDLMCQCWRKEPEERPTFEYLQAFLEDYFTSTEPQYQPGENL
structure (smiles),measurement,setting,value
CC(Sc1nc2c(cnn2-c2cccc(Cl)c2)c(=O)[nH]1)C(N)=O (stereo not shown) [HS38],contractile force during the Ca2+ sensitization process,[1]; calyculin A,concentration-dependent attenuation
same,t1/2max; time to reach 50% of maximal contractile force,"[1]; calyculin A 10^−7 M, increasing concentrations of HS-38",concentration-dependent increases
same,Latency (s),"[1]; calyculin A with HS-38, n = 28, mean ± SEM",*654.7 ± 60.6 s
same,% KCl contraction,"[1]; steady-state force, calyculin A with HS-38, n = 28, mean ± SEM",**161.7 ± 8.4%
same,MYPT1 Thr696 phosphorylation level,[2],significantly reduced
same,dilation of vessels previously constricted with 5HT,[3],induced dilation
same,inhibition at 10 µM,Src,0%

# From patent US11999737B2, “Kinase inhibitors and related methods of use” (Duke University, priority 2014, dated 2024)
